# From patent publication US20150219644A1, “MARKER FOR ACUTE CORONARY SYNDROME, AND USE THEREOF” (RIKEN, priority 2012, published 2015)
# Key:
# [1] = test system: human brain microvascular endothelial cell (BMEC); experiment: sAPP770 secreted from BMEC detected by APP770 ELISA; type: cell-based; conditions: culture 16 hr, n=4; for level of sAPP770 secreted from BMEC: cytokine 100 ng/ml
# Description: (A) Brief explanations of APP total ELISA and APP770 ELISA. The recognition sites of a trap antibody (with asterisk) and a detection antibody (without asterisk) in these ELISA systems are shown in the schematic drawing. (B) Western blot analysis. Anti-N terminal APP (22C11) antibody detects full-length APP695, APP751 and APP770 in the lysates of COS cells overexpressing APP695, APP751 and APP770, whereas anti-OX2 antibody used as a trap antibody in APP770 ELISA specifically recognizes APP770. (C) APP total ELISA detects sAPP695, sAPP751 and sAPP770 secreted from COS cells, whereas APP770 ELISA detects only sAPP770. (D) BMEC was cultured for 16 hr in the presence or absence of inflammatory cytokine (TNFα, IL-1β or IL-6; each 100 ng/ml), and sAPP770 secreted from the cells was detected by APP770 ELISA. […] (E) An influence on secretion of sAPP770 from BMEC by culture for 16 hr in the presence of TAPI-0 (10 μM). […] (F) The sAPP770 levels of human serum and human plasma samples are shown in mean±SEM (n=19).
# Human APP695-pcDNA3.1, APP751-pcDNA3.1 and APP770-pcDNA3.1 used were those constructed in the previous study (J Biol Chem 285(51):40097-40103 (2010)). Human BMEC (Applied Cell Biology Research Institute) was cultured in CS-C complete medium added with 10% FBS, and used within 4 passages.
# Using human sAPP total assay kit (IBL-Japan), sAPP695, sAPP751 and sAPP770 were detected according to the established protocol (http://www.ibl-japan.co.jp). The APP770 ELISA system was established as previously reported (Anal Chim Acta 631(1): 116-120 (2009)). Briefly explained, a 96 well plate was coated with an anti-OX2 antibody, and a horseradish peroxidase-conjugated anti-APP R101A4 antibody was used as a detection antibody. Human CSF (1:16 diluted with dilution buffer contained in kit), plasma and serum (1:75 diluted with dilution buffer contained in kit) were evaluated by APP total ELISA and APP770 ELISA.
# platelets = experiment: release of sAPP770 from collagen-stimulated platelets (PRP), APP770 ELISA; type: cell-based, human; conditions: collagen final concentration 3 μg/ml
# Procedure: (A, B) PRP was stirred under stimulation with collagen (final concentration 3 μg/ml). At the time points shown in the Figure, each sample was centrifuged, and supernatant (A) […] and platelet pellet (B) were analyzed by APP770 ELISA. (C) Platelets were washed, stimulated with collagen, centrifuged, and sAPP770 released in the supernatant was analyzed. (D) Schematic drawing showing APP770 and the sites recognized by a series of anti-APP antibodies. (E) After stimulation of platelets with collagen and, at the time points shown in the Figure, the platelet pellets were solubilized, sAPP was pulled down from the platelet release product, and analyzed by western blotting using anti-APP(22C11) antibody, anti-OX2 antibody, anti-APP(C) antibody and anti-KPI antibody. […]
# On the day of experiment, blood (16 ml) was collected from healthy human by using a vacuum blood collection tube (NIPRO CORPORATION) containing 3.8% sodium citrate. […] The obtained cell lysate was evaluated by ELISA and Western blot analysis.
# Using human sAPP total assay kit (IBL-Japan), sAPP695, sAPP751 and sAPP770 were detected according to the established protocol (http://www.ibl-japan.co.jp). […] Human CSF (1:16 diluted with dilution buffer contained in kit), plasma and serum (1:75 diluted with dilution buffer contained in kit) were evaluated by APP total ELISA and APP770 ELISA.
Molecule,level of sAPP770 secreted from BMEC [1],also measured
CC(C)C[C@H](CC(=O)NO)C(=O)N[C@@H](Cc1ccc2ccccc2c1)C(=O)N[C@@H](C)C(N)=O [TAPI-0],–,secretion of sAPP770 from BMEC ([1]; TAPI-0 10 μM): partially inhibited
TNFα,significantly increased only slightly,–
IL-1β: recombinant human inflammatory cytokine from R&D Systems,significantly increased only slightly,–
collagen,–,level of sAPP770 in the platelet precipitate (platelets; after stimulation): decreased remarkably; level of sAPP770 in the PRP supernatant (platelets; one minute after stimulation): increased rapidly
IL-6: recombinant human inflammatory cytokine from R&D Systems,did not increase,–
